Experimental data: paper PMC7031697, “Mechanism of Activation of AMPK by Cordycepin” (Cell Chemical Biology, 2020)
Read-outs that look alike come from different tables or passages of the source.

Legend:
HepG2 cells [1] = assay: Cellular content of adenine and cordycepin nucleotides by LC-MS; type: cell-based, human; settings: 1 h
Description: After treatment, cells for nucleotide analysis were lysed in 70% perchloric acid and the acid extracted as described previously ([Hawley et al., 2010]). The levels of AMP, ADP, ATP, CoMP, CoDP and CoTP were measured using a TSQ Quantiva (with an ion Max NG source) interfaced with an Ultimate 3000 Liquid Chromatography system (ThermoScientific). Separation of all compounds was achieved using a porous graphitic carbon column (HyperCarb 30x1 mm ID […]; Part No: C-35003-031030, Thermo-Scientific) as described previously ([Ross et al., 2017]) with some modifications. Mobile phase buffer A consisted of 0.3% (v/v) formic acid adjusted to pH 9 with ammonia prior to a 1:10 dilution. Mobile phase buffer B was 80% (v/v) acetonitrile. The column was maintained at a controlled temperature of 40°C and equilibrated with 10% buffer B for 5 min at a constant flow rate of 0.05 mL/min. Aliquots of 1μL of each sample were loaded onto the column and compounds eluted with a linear gradient from 10% buffer B to 12% buffer B within 1 min, then 12% B to 100% B within 2 min; the column was then washed for 4 min with 100% Buffer B. Eluents were sprayed into the TSQ Quantiva using Ion Max NG ion source with ion transfer tube temperature at 350°C and vaporizer temperature 30°C. The TSQ Quantiva was run in negative mode with a spray voltage of 3500, sheath gas 40, aux gas 20 and sweep gas 2. Levels of ATP, ADP and AMP were measured using multiple reactions monitoring mode (MRM) with transitions described previously ([Ross et al., 2017]). For CoMP, CoDP and CoTP, optimised collision energies and radio frequencies were determined by infusing the pure compounds. Two transitions were used to monitor each of the three compounds, CoMP (330.22>134.01, 330.22>195.11), CoDP (410>256.67, 410>392.0) and CoTP (490>158.89, 490.11>472.11).

[2] = Measurement of cordycepin in cell medium of HepG2 cells (LC-MS); type: in vitro ADME, human; settings: human, 100 μM added
Description: (§1) The same LC-MS system was used to detect and quantify cordycepin. LC conditions were optimized using a TSKgel Amine-80 Column (100 × 1 mm, ID 5 μm, Part No.0020010, TOSOH Bioscience). Mobile phase buffer A consisted of 0.1% (v/v) formic acid and buffer B was in 80% (v/v) acetonitrile. The column was maintained at 40°C and was equilibrated with 98% buffer B for 5 min at a constant flow rate of 0.05 mL/min. Samples were diluted 1/1500 and aliquots of 4 μL of each sample loaded onto the column. Cordycepin was eluted by decreasing buffer B from 98% to 85% within 2 min and then to 10% within 5 min. Eluents were sprayed into the TSQ Quantiva which was run in positive mode with a spray voltage of 2700, sheath gas 40, aux gas 20, sweep gas 2. Levels of cordycepin were measured using multiple reaction monitoring mode (MRM) with optimized collision energies and radio frequencies previously determined by infusing pure compound. One transition (252 > 136) was used to detect and monitor cordycepin.

HepG2 cells [3] = assay: as above; type: in vitro ADME, human; settings: 100 μM added
Description: as §1

HepG2 cells [4] = assay: MTT assay for cell proliferation; type: cell-based, human
Description: After treatment for the specified time, the effect of cordycepin on cell proliferation was determined using the MTT assay kit (Abcam, ab211091) as per manufacturers’ instructions.

HepG2 cells [5] = assay: Clonal survival assay, HepG2; type: cell-based, human; settings: for EC50: Homo sapiens, read-out: half-maximal effect on cell survival
Description: (§2) Cells were seeded into 6-well plates at equal density and treated in triplicate at 40% to 60% confluence with vehicle or cordycepin for the indicated time. Cells were trypsinized in 1 ml trypsin:EDTA for 5 min and diluted in 1 ml of complete medium. Cells in control wells were counted using a hemocytometer and 1000 cells from vehicle and cordycepin-treated wells were seeded in triplicate into 10 cm dishes containing 10 ml of medium. The dishes were incubated at 37°C for 10-15 days. […] The dishes were washed with water and the number of colonies counted manually.

[6] = tested on: wild-type (WT) U2OS cells; assay: Clonal survival assay, wild-type U2OS; type: cell-based; settings: Homo sapiens, 8 h incubation, read-out: half-maximal effect on clonal survival
Description: Cells were seeded into 6-well plates at equal density and treated in triplicate at 40% to 60% confluence with vehicle or cordycepin for the indicated time. Cells were trypsinized in 1 ml trypsin:EDTA for 5 min and diluted in 1 ml of complete medium. Cells in control wells were counted using a hemocytometer and 1000 cells from vehicle and cordycepin-treated wells were seeded in triplicate into 10 cm dishes containing 10 ml of medium. The dishes were incubated at 37°C for 10-15 days. On the last day, the medium was decanted, cells fixed with ice-cold methanol for 10 min and stained with 10% v/v Giemsa stain in water for 15 min. The dishes were washed with water and the number of colonies counted manually.

AMPK DKO U2OS cells = assay: Clonal survival assay, AMPK DKO U2OS; type: cell-based; settings: Homo sapiens, 8 h incubation, read-out: half-maximal effect on clonal survival
Excerpt: AMPK-α1^-/- -α2^-/- U2OS cells were generated using the Cas9 (D10A) double nickase system. Pairs of guide RNAs targeted to exon 4 in both PRKAA1 and PRKAA2, along with screening primers for genotyping, were designed and cloned by Thomas Macartney and are available by contacting MRCPPU Reagents and Services (https://mrcppureagents.dundee.ac.uk). Sense guides were cloned into the puromycin-selectable pBABED puro U6 vector and antisense guides into the Cas9 (D10A) vector pX335. U2OS cells carrying a Flp recombinase target site were transfected with 1 μg of each plasmid using Fugene6 according to manufacturers’ instructions. At 24 and 48 hr after transfection, medium was replaced with fresh medium containing 1 μg/ml puromycin. […] Clones were expanded and screened for loss of AMPK protein and activity by Western blotting using anti-AMPK-α and pACC antibody normalised to total ACC detected using streptavidin. […]
as §2, with “Cells were trypsinized in 1 ml trypsin:EDTA for 5 min and diluted in 1 ml of complete medium.” left out, “medium.” for “medium. The dishes were incubated at 37°C for 10-15 days.”

## Nc1ncnc2c1ncn2[C@@H]1O[C@H](CO)C[C@H]1O [cordycepin, 3′-deoxyadenosine]
HepG2 cells [1]; 30 μM cordycepin or below
  AMPK activation and CoMP formation: neither AMPK activation nor CoMP formation was observed
HepG2 cells [1]; 1 mM cordycepin
  decrease in cellular ADP content: 14 fold
  decrease in cellular AMP content: 5 fold
  drop in cellular ATP content: 100 fold
[2]
  half-life at 100 μM: ~1.33 h
HepG2 cells [3]; by 2 h
  decline of cordycepin in the medium: 70%
HepG2 cells [3]; by 4 h
  cordycepin remaining in the medium: almost disappeared
HepG2 cells [4]; 30 μM, after 72 h
  effect on cell proliferation: only very small effects
HepG2 cells [4]; 100 μM, after 72 h
  decrease in cell proliferation: 30%
HepG2 cells [4]; 300 μM
  effect on cell proliferation: completely prevented cell proliferation
HepG2 cells [4]; 1 mM
  effect on cell proliferation: completely prevented cell proliferation
HepG2 cells [5]; 100 μM
  effect on clonal survival: only partial effects
HepG2 cells [5]; 300 μM
  effect on clonal survival: almost complete death
HepG2 cells [5]; 1 mM
  effect on clonal survival: almost complete death
HepG2 cells [5]; 2 h treatment
  EC50: 130 µM
HepG2 cells [5]; 8 h treatment
  EC50: 70 µM
HepG2 cells [5]; 24 h treatment
  EC50: 35 µM
[6]
  EC50: 81 ± 4 µM
AMPK DKO U2OS cells
  EC50: 44 ± 2 µM
